Reference: patent US9358225B2, “Method for treating neurodegeneration using a p38MAPK inhibitor” (Bach Pharma, Inc., priority 2013, dated 2016)

System: Atm−/− mice
Assay: Modified rotarod behavioral test
Type: in vivo, mouse
Details: P90, after treatment, vs PBS-treated Atm−/− and Atm+/+
Text: The Atm−/− mice were originally generated by Dr. C. Barlow (Barlow et al., 1996). They were purchased from the Jackson Laboratory (Bar Harbor, Me.). Offspring of Atm+/− breeders were genotyped using real-time polymerase chain reaction-based assays of mouse tail DNA. Atm mice (1-month old) were divided into 3 groups: PBS-treated Atm+/+ mice (n=10/group); PBS-treated Atm−/− mice (n=9/group); and SB203580 (4-[5-(4-Fluorophenyl)-2-[4-(methylsulphonyl)phenyl]-1H-imidazol-4-yl]pyridine) treated Atm−/− mice (n=10/group). Mice were intraperitoneally injected with either PBS or SB203580 (4-[5-(4-Fluorophenyl)-2-[4-(methylsulphonyl)phenyl]-1H-imidazol-4-yl]pyridine) (5 mg/kg body weight) at 2-day intervals for 2 months. Animals were sacrificed one day after the last administration. Animal care was in accordance with The University of Texas MD Anderson Cancer Center guidelines for animal experiments.
We have devised a modified version of the standardized rotarod protocol (Columbus Instruments, Columbus, Ohio). […] Following training, three trials of mouse motor coordination were assessed by measuring the time before falling off the rotarod moving at 25 rpm.
Each experiment, including behavioral test, body weight measure and qRT-PCR was repeated at least three times. The proportion of mRNA expression was analyzed from a series of tissue sections. […]

CC(=O)N[C@@H](CS)C(=O)O [NAC, N-acetyl-L-cysteine]
rotarod performance (time before falling off at 25 rpm): stayed on the rod as long as did Atm+/+ mice

CC1(C)c2ccc(C(=O)O)cc2C(C)(C)N1[O] [CTMIO, 5-carboxy-1,1,3,3-tetramethylisoindolin-2-yloxyl]
rotarod performance (time before falling off at 25 rpm): stayed on the rod as long as did Atm+/+ mice
